The assay addresses T1, His-tagged Bcl-2 (Homo sapiens, UniProt P10415).
T1 construct: gene BCL2; commercial His-tagged Bcl-2 protein (Abcam); tag kept
As to the kind of experiment: competitive ELISA, His-tagged Bcl-2 vs immobilised biotinylated Bim peptide. The conditions noted are these: read-out: ELISA IC50 (μM) ^1. The assay is classed as binding. Background: An ELISA detects its analyte on a solid surface through an enzyme-linked reagent.

Where [1] appears, read: competition with Bim peptide (residues 81–106), 20 nM Bcl-2, PBS, room temperature.

Where two headings read alike, the source gives them in different places.

T1 sequence (P10415 whole entry): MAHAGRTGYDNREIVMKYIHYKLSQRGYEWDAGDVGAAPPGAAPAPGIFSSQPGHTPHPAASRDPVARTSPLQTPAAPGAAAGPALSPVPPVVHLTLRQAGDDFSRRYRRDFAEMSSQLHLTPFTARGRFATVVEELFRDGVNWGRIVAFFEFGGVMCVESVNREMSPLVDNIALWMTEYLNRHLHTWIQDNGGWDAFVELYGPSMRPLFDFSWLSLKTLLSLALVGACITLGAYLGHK

What is called IC50 is the concentration that inhibits the measured activity by half. Regarding `Cc1ccc(Nc2nnc(-c3cc(-c4ccc(Br)cc4)nc4ccccc34)o2)cc1` [6c], under setting [1], the 50% inhibitory concentration (IC50) is 1.93 ± 0.007 µM.

As for `O=[N+]([O-])c1ccc(Nc2nnc(-c3cc(-c4ccc(Br)cc4)nc4ccccc34)o2)cc1` [6d], the IC50 is 14.5 ± 1.2 µM.

For the compound `COc1ccc2nc(-c3ccc(Br)cc3)cc(-c3nnc(Nc4ccc([N+](=O)[O-])cc4)o3)c2c1` [6i], under setting [1], the IC50 was 0.15 ± 0.02 µM.
